Reference: US20220213060A1, “Crystal Form of Quinazolinone Compound and Preparation Method Therefor” (Luoxin Healthcare Science and Technology Development …, priority 2019, published 2022)
Where two headings read alike, the source gives them in different places.

Assays:
[1] = system: human ovarian cancer SKOV-3 (PIK3CA H1047R mutation); test: In vivo pharmacodynamic study, SKOV-3 nude mouse subcutaneous xenograft tumor model; design: species or system BALB/c nude mice; details: for T/C % / TGI %: oral once a day for 28 days
Description: Human SKOV-3 ovarian cancer cells with PIK3CA H1047R mutation. This experiment evaluated the efficacy of the crystal form A of the represented by formula (I) in a human ovarian cancer xenograft tumor model.
Cell culture: Human ovarian cancer SKOV-3 cells were cultured in vitro in a single layer, the culture condition was RPMI-1640 medium with 10% fetal bovine serum, and the cells were incubated in 5% CO2 at 37° C. Digestion and passage treatment with trypsin-EDTA was carried out twice a week. When the cell saturation was 80%-90% and the number reached the requirement, the cells were collected, counted and inoculated.
Animals: BALB/c nude mice, female, 6-8 weeks old, weighing 18-20 g. A total of 67 animals were required, and provided by Beijing Vital River Biotechnology Co., Ltd.
Tumor inoculation: 0.2 mL (10×10^6 cells) of SKOV-3 cells (with matrigel in a volume ratio of 1:1) were subcutaneously inoculated on the right back of each mouse, group administration was started when the average tumor volume reached 150 mm^3-200 mm^3.
Tumor-bearing mice in each administration group had good tolerance to the tested compounds.

[2] = Beagle dog absorption test (pharmacokinetics); type: in vivo, Beagle dogs
Description: Beagle dogs were given the crystal form A of the compound represented by formula (I) by single or multiple oral administration and single intravenous injection respectively, with 6 dogs in each group, half male and half female. The single oral doses were 0.3, land 3 mg/kg respectively; the multiple doses were 1 mg/kg, once a day for 7 consecutive days; the single intravenous dose was 0.3 mg/kg. According to the drug plasma concentration-time curve, the pharmacokinetic parameters were calculated, the results are shown in Table 15. The vehicle for drug preparation in group 1 was 5% HP-beta-CD, 5% solutol, pH=8 aqueous solution, the vehicles for groups 2, 3, 4 were 0.5% MC, 0.2% Tween80 aqueous solution.

PI3Kδ = biological target: T1, PI3Kδ (Homo sapiens, UniProt O00329); test: In vitro enzymatic activity test (ADP-Glo lipid kinase), PI3Kδ; type: biochemical; details: inhibitory activity against PI3Kα relative to PI3Kδ
T1 construct: purchased Millipore 14-604-K
Description: The lipid kinase reaction was carried out in a suitable substrate and under ATP conditions, then the activity of the kinase was detected by ADP-Glo™ kit in two steps. Step 1: the kinase reaction was terminated, in which the residual ATP was completely removed and only ADP was retained; step 2: kinase detection reagent was added to convert ADP to ATP, accompanied by fluorescein/luciferase reaction. Finally, the fluorescence value output was converted into kinase activity.
Experimental Materials and Equipment:
2) Kit: ADP-Glo™ lipid kinase and PIP2:3PS kit (Promega #V1792)
The reagent kit contains: 1 mM PIP2:3PS, 10× lipid dilution buffer, 1 M magnesium chloride, 10 mM ATP, 10 mM ADP, ADP-Glo reagent, detection buffer and detection substrate.
3) Reaction plate: OptiPlate-384, white and transparent (PerkinElmer #6007299)
1) 10× reaction buffer: 500 mM HEPES, pH 7.5, 500 mM NaCl, […]; BSA: 10% stock solution, self-made
2) Final test system conditions: 1× reaction system: 50 mM of HEPES, 50 mM of NaCl, 3 mM of MgCl2, 0.01% BSA (freshly prepared on the day of experiment), 1% DMSO (v/v)+/−compound
3) Reaction system: 3 μL of mixture of enzyme and substrate (1:1)+2 μL of ATP/MgCl2 mixture+5 μL of ADP-Glo reagent+10 μL of detection reagent.
The specific experimental operations were as follows: […]
(16) Fluorescence values were measured on the Envision instrument.

[3] = 10 mg/kg, listed as crystal form A of the compound represented by formula (I)
[4] = 20 mg/kg, listed as crystal form A of the compound represented by formula (I)
[5] = 40 mg/kg, listed as crystal form A of the compound represented by formula (I)
[6] = both sexes, beagle, dog, plasma, po, 0.3 mg/kg, male and female Beagle dogs, single
[7] = both sexes, dog, plasma, iv, male and female Beagle dogs, vein, 0.3 mg/kg, single
[8] = both sexes, dog, plasma, male and female Beagle dogs, oral, 0.3 mg/kg, single
[9] = both sexes, dog, plasma, male and female Beagle dogs, oral, 1 mg/kg once a day, day 7
[10] = both sexes, dog, plasma, male and female Beagle dogs, oral, 1 mg/kg, day 1
[11] = both sexes, dog, plasma, male and female Beagle dogs, oral, 3 mg/kg, single
[12] = male and female beagle dogs, oral, 1 mg/kg for 7 consecutive days, 7 days after the administration
[13] = male and female beagle dogs, oral, 1 mg/kg, 1 day after the administration

T1 sequence (O00329 whole entry): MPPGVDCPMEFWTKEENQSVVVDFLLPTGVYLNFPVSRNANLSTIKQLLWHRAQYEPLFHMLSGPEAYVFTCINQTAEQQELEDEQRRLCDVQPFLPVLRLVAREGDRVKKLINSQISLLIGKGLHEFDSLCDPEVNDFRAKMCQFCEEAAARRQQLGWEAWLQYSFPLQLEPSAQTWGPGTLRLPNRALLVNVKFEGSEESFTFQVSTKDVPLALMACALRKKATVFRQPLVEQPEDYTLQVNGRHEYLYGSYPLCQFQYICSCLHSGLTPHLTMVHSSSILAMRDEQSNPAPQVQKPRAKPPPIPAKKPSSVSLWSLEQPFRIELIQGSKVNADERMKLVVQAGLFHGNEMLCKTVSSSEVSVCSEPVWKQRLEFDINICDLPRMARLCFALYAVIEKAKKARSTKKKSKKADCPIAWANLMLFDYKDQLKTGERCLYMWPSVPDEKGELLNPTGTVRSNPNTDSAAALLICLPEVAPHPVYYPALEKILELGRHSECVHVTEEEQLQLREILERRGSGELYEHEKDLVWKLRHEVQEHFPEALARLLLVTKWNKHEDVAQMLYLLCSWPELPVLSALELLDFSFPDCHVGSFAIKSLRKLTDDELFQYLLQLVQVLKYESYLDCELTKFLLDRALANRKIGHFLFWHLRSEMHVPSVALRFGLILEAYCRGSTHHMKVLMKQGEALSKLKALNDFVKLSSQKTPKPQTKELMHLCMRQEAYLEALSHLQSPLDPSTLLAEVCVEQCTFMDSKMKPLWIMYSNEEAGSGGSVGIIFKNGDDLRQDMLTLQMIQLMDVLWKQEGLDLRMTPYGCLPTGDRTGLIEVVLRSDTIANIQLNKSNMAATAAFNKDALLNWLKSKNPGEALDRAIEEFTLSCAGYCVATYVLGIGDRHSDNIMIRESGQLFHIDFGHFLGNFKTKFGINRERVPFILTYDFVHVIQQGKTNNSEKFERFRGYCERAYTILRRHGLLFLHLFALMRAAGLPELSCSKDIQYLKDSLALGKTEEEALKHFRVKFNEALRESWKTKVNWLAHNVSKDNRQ
T1 sequence (P27986 whole entry partner): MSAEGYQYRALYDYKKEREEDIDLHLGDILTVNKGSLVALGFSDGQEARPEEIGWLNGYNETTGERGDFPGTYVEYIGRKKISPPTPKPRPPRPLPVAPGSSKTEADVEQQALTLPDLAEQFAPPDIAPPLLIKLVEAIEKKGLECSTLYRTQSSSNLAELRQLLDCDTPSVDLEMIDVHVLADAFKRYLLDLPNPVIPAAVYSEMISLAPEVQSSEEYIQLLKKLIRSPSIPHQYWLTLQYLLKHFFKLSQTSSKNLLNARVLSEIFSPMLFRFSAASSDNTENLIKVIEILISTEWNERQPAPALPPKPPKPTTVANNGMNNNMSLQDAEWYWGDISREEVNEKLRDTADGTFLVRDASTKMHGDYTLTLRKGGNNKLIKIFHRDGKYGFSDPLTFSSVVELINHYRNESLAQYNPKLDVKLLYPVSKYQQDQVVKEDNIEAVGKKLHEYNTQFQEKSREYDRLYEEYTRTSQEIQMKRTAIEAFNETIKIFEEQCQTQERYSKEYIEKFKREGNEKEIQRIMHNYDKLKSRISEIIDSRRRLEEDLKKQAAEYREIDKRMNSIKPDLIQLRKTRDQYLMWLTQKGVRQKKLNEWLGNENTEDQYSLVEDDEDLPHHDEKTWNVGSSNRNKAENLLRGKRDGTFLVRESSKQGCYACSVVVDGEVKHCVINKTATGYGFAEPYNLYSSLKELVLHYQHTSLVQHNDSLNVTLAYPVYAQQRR

AUC(0-t) ([2]; both sexes, beagle, dog, plasma, iv, 0.3 mg/kg, male and female Beagle dogs, vein, single): 1.47 ± 0.353 µM·h | AUC(0-t) [2, 6]: 1.29 ± 0.715 µM·h | bioavailability [2, 6]: 87.8% | AUC(0-t) ([2]; both sexes, beagle, dog, plasma, po, 1 mg/kg, male and female Beagle dogs, oral, 1 mg/kg once a day, day 7): 5.88 µM·h | AUC(0-t) ([2]; both sexes, beagle, dog, plasma, po, 1 mg/kg, male and female Beagle dogs, oral, 1 mg/kg, day 1): 4.98 ± 0.946 µM·h | AUC(0-t) ([2]; both sexes, beagle, dog, plasma, po, 3 mg/kg, male and female Beagle dogs, single): 14.8 ± 2.51 µM·h | C0 [2, 7]: 512 nM | clearance [2, 7]: 6.18 ± 1.49 mL/min/kg | half-life [2, 7]: 6.32 ± 1.62 h | Vd ([2]; both sexes, dog, plasma, iv, male and female Beagle dogs, vein, 0.3 mg/kg, single, read-out: Vdss): 2.47 ± 0.391 L/kg | Tmax [2, 8]: 2 ± 1.1 h | half-life [2, 8]: 6.92 ± 3.16 h | Cmax ([2]; both sexes, dog, plasma, male and female Beagle dogs, oral, 0.3 mg/kg, single, read-out: Cmax): 158 ± 68.4 nM | Cmax at 7 days [2, 9]: 850 nM | Tmax at 7 days [2, 9]: 1.33 h | half-life at 7 days [2, 9]: 5.18 ± 0.487 h | Tmax [2, 10]: 1.67 ± 0.516 h | half-life [2, 10]: 5 ± 1.44 h | Cmax ([2]; both sexes, dog, plasma, male and female Beagle dogs, oral, 1 mg/kg, day 1, read-out: Cmax): 656 ± 30.7 nM | Tmax [2, 11]: 3.08 ± 1.5 h | half-life [2, 11]: 6.55 ± 1.76 h | Cmax ([2]; both sexes, dog, plasma, male and female Beagle dogs, oral, 3 mg/kg, single, read-out: Cmax): 1880 ± 274 nM | AUC0-last [2, 12]: 5.88 ± 0.697 µM·h | Cmax [2, 12]: 850±106 nm | AUC0-last [2, 13]: 4.98 ± 0.946 µM·h | Cmax [2, 13]: 656±30.7 nm | Selectivity PI3Kα/δ (kinase) (PI3Kδ): 7.44 times
Structure (SMILES): CNC(=O)[C@H](C)Cn1cnc2ccc(-c3cnc(OC)c(NS(=O)(=O)c4ccc(F)cc4F)c3)cc2c1=O
Anti-tumor effect (in words) ([1]; 10 mg/kg): a certain anti-tumor effect | T/C % ([1]; 10 mg/kg): 69.17% | TGI % ([1]; 10 mg/kg): 30.45% | T/C % [1, 3]: 69.17% | TGI % [1, 3]: 30.45% | Anti-tumor effect (in words) ([1]; 20 mg/kg): a certain anti-tumor effect | T/C % ([1]; 20 mg/kg): 60.61% | TGI % ([1]; 20 mg/kg): 41.42% | T/C % [1, 4]: 60.61% | TGI % [1, 4]: 41.42% | Anti-tumor effect (in words) ([1]; 40 mg/kg group): significant anti-tumor effects | T/C % ([1]; 40 mg/kg): 37.79% | TGI % ([1]; 40 mg/kg): 69.16% | T/C % [1, 5]: 37.79% | TGI % [1, 5]: 69.16%
